# In patent publication US12600698B2, “Kinase inhibitors” (Vidya Therapeutics, Inc., priority 2021, dated 2026):
# What was measured:
# BTK [1] = biological target: T1, BTK (Homo sapiens, UniProt Q06187); experiment: Assay to determine BTK inactivation rate (active site probe ELISA, human whole blood); format: cell-based; parameters: tissue StemExpress; host or cells: human whole blood; details: 37° C., 5-60 minutes, read-out: BTK hWB (Kinact/Ki)
# Procedure: This example employed a BTK active site probe-based assay using a biotinylated covalent inhibitor in human and mouse blood or mouse brain lysate.
# Human whole blood was obtained from StemExpress (Stockton, CA) and kept at ambient temperature until the time of the experiment, which was approximately 24 hours after it had been collected. • 1. A 1× lysis buffer was prepared by using 10× lysis buffer (Cell Signaling Technology, #9083S, Danvers, MA), molecular biology grade water, 100× Halt Protease and Phosphatase Inhibitor Cocktail, (ThermoFisher, #78440, Waltham, MA), and BTK active site probe (final: 0.4 μM). This was prepared fresh each experimental day. • 2. Lysis buffer was added in the volume of 30 μL to all wells in a V-bottom plate (Greiner Bio-One, #651261, Monroe, NC) in preparation for timepoint collections. • 3. Compounds were reconstituted to stocks of 10 mM in 100% DMSO and were diluted in 2-fold serial dilutions to generate an 8-point curve in DMSO, with the last point being DMSO only. • 4. A working 10× dilution series was created using 1 μL of the prepared DMSO titration into […] 1×PBS in order to keep the DMSO constant (0.03% DMSO final). • 5. The whole blood was added in the volume of 225 μL per well in a new 96 w v-bottom plate. • 6. For compound treatment, 25 μL of the 10× dilution series in PBS was added to the 225 μL whole blood, followed by briefly pipetting up and down, twice. • 7. The plates were then covered with plastic lids and incubated at 37° C. for 5, 10, 15, 30, 60 minutes. • 8. At each timepoint, 30 μL of compound- or DMSO (vehicle)-treated blood is pulled from each column and added to preloaded collection plates that contained 30 μL of lysis buffer supplemented with BTK active site probe. Samples were then mixed briefly by pipetting up and down, twice. • 9. The plates with collected and lysed samples were shaken and covered with sealing film on a rotator for 60 minutes at room temperature. These samples were used fresh for detection via ELISA, and remaining sample was frozen at −80° C. if a repeat was necessary. Determining Amount of Unoccupied BTK Using ELISA • 1. All streptavidin pre-coated plates (R&D Systems, #CP004, Minneapolis, MN) were brought to room temperature while samples are lysing. • 2. Assay Buffer 1, 1×PBS+0.05% Tween 20+1% BSA was prepared, filtered, and stored at 4° C. when not in use. • 3. Using this Assay Buffer 1, assay buffer+1× protease/phosphatase inhibitor cocktail (PICS) was prepared in the amount needed for all samples. • 4. Assay Buffer+PICS in the volume of 90 μL/well was added to the ELISA plate for blood samples. • 5. Assay Buffer+PICs in the volume of 50 μL/well was added to the ELISA plate for brain samples. • 6. Lysed blood sample (10 μL) was added to the ELISA plate. • 7. Lysed brain sample (50 μL) was added to the ELISA plate. • 8. Samples were loaded into the ELISA plate for a total of 100 μL/well, in duplicate, and remained in the plate, sealed, overnight at 4° C. • 9. The following day, the plate was washed three times with 1× Wash Buffer (1×PBS+0.05% Tween 20) at 250 μL/well using a plate washer. • 10. The plate was inverted to expel all fluid each time and blotted on clean paper towels to remove remaining liquid. • 11. Assay Buffer 2 was prepared (1×PBS+0.05% Tween 20+0.5% BSA) and kept at 4° C. when not in use. • 12. The primary antibody α-BTK (clone D3H5, Cell Signaling Technology #8547S Danvers, MA) was diluted 1:500 in Assay Buffer 2. • 13. Diluted a-BTK antibody was added at 100 μL/well. • 14. The plate was covered with adhesive film and incubated for 90 minutes at room temperature. • 15. The plate was washed three times with 1× Wash Buffer at 250 μL/well using a plate washer. • 16. The plate was inverted to expel all fluid each time and blotted on clean paper towels to remove remaining liquid. • 17. The detection antibody (Jackson Immuno Research, #711-005-152) was diluted 1:2,500 with Assay Buffer 2. • 18. The diluted antibody was added at 100 μL/well. • 19. […]
# BTK [2] = biological target: T1, BTK; experiment: BTK IC50 (EZ reader kinase assay); format: biochemical; parameters: purchased Carna; details: ATP 1 mM, BTK 2 nM, 90 minutes at room temperature
# Procedure: Solutions of compounds (test or control) in DMSO were prepared at the desired concentrations, and serially diluted to 11 concentrations by 3-fold dilution in 384pp-plate using TECAN EVO200. 20 nL of stock were transferred to 384 plate using Echo550. DMSO was used as vehicle control.
# Two separate solutions were prepared—an ATP solution containing MgCl2 (10 mM), Brij-35 (0.01%), DTT (2 mM), BSA (0.05%), EGTA (1 mM), HEPE (pH7.5) (50 mM), FLPeptide (6 uM) and ATP (4 mM); and a BTK solution containing MgCl2 (10 mM), Brij-35 (0.01%), DTT (2 mM), BSA (0.05%), EGTA (1 mM), HEPE (pH7.5) (50 mM) and BTK (2.67 nM). (BTK was obtained from Carna; FLPeptide2 was obtained from PerkinElmer and Ibrutinib was obtained from Selleck.) 5 uL of ATP solution were added to each well, followed by addition of 15 uL of BTK solution to initiate the reaction. (Note the final volume of each well was 20 uL containing MgCl2 (10 mM), Brij-35 (0.01%), DTT (2 mM), BSA (0.05%), EGTA (1 mM), HEPE (pH7.5) (50 mM), FLPeptide (1.5 uM), ATP (1 mM) and BTK (2 nM). The plates were incubated at room temperature for 90 minutes and then stopping buffer added (75 uL, containing 0.5 M EDTA) to terminate the reaction. Samples from each well were analyzed using EZ reader.
# The % remaining activity was calculated using read conversion ratio (CR) according to the equation: […]
# XLFit (equation 201) was used to calculate IC50's by floating both bottom and top.
# BTK IC50 values are provided in Table 5, for the compounds described in Examples 1-13, wherein: • “A” denotes an IC50<1 nM; • “B” denotes an IC50 1-10 nM; and • “C” denotes an IC50>10 nM.
# T1 sequence (Q06187 whole entry): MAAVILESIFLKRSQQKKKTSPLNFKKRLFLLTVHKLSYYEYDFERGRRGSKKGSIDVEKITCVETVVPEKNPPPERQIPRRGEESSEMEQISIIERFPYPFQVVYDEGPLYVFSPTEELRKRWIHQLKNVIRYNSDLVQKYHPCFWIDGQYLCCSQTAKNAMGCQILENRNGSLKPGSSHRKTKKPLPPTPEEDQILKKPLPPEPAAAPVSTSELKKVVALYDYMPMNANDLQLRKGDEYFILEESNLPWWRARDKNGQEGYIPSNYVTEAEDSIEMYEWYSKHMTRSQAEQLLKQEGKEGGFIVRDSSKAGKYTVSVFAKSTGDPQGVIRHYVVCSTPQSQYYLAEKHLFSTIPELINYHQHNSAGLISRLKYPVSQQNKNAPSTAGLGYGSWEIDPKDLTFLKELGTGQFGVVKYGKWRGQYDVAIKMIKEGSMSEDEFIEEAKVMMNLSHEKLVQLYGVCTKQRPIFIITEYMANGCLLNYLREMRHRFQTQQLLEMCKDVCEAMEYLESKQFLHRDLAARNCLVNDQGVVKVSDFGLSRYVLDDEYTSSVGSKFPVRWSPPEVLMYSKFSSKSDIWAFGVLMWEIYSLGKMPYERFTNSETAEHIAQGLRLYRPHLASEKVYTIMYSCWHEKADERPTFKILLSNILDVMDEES
kinact/KI (BTK [1]),IC50 (BTK [2]),Compound
< 8330 M⁻¹ s⁻¹,< 1 nM,"CC#CC(=O)N[C@H]1CCC=C(c2c(F)cc(C(N)=O)c3[nH]c(C)c(Cl)c23)C1 [1A(S), (S)-4-(5-(but-2-ynamido)cyclohex-1-en-1-yl)-3-chloro-5-fluoro-2-methyl-1H-indole-7-carboxamide]"
< 8330 M⁻¹ s⁻¹,1 to 10 nM,"CC#CC(=O)N[C@@H]1CCC=C(c2c(F)c(F)c(C(N)=O)c3[nH]c(C)c(Cl)c23)C1 [2A(R), (R)-4-(5-(but-2-ynamido)cyclohex-1-en-1-yl)-3-chloro-5,6-difluoro-2-methyl-1H-indole-7-carboxamide]"
8330 to 16700 M⁻¹ s⁻¹,1 to 10 nM,"CC#CC(=O)N[C@H]1CCC[C@H](c2c(F)cc(C(N)=O)c3[nH]c(C)c(Cl)c23)C1 [6-(1S,3S), 4-((1S,3S)-3-(but-2-ynamido)cyclohexyl)-3-chloro-5-fluoro-2-methyl-1H-indole-7-carboxamide]"
